From patent US6391545B1 (priority 1992, dated 2002)
≈ marks a conversion by molar mass, not a printed value.

Columns and labels:
Assay type in all cases: cell-based
[1] = system: E. coli strain MCH164pMAK-Region II; assay: MIC complementation test, MCH164pMAK-Region II; settings: Escherichia coli
[2] = system: E. coli strain MCH164pMAL-marA; assay: MIC complementation test, MCH164pMAL-marA; settings: Escherichia coli, MCH164PMALMARA
[3] = system: E. coli strain MCH164pMAL-marB; assay: MIC complementation test, MCH164pMAL-marB; settings: Escherichia coli, MCH164PMALMARB
[4] = system: E. coli strain AG102 (Mar mutant); assay: MIC complementation test, AG102 (Mar mutant); settings: Escherichia coli
[5] = system: E. coli strain MCH164PHH193-SEQ ID NO:1; assay: MIC complementation test, MCH164PHH193-SEQ ID NO:1; settings: Escherichia coli
[6] = system: E. coli strain MCH164pMAL-marAB; assay: MIC complementation test, MCH164pMAL-marAB; settings: Escherichia coli, MCH164PMALMARAB

| Compound | MIC [1] [µg/mL] | MIC [2] [µg/mL] | MIC [3] [µg/mL] | MIC [4] [µg/mL] | MIC [5] [µg/mL] | MIC [6] [µg/mL] |
| --- | --- | --- | --- | --- | --- | --- |
| CN(C)[C@@H]1C(O)=C(C(N)=O)C(=O)[C@@]2(O)C(O)=C3C(=O)c4c(O)cccc4[C@@](C)(O)[C@H]3C[C@@H]12 [Tet, tetracycline] | 4.7 (≈ 10.6 µM) | 3.4 (≈ 7.65 µM) | 2.1 (≈ 4.73 µM) | 13.8 (≈ 31.1 µM) | 13.1 (≈ 29.5 µM) | 4.7 (≈ 10.6 µM) |
| O=C(N[C@H](CO)[C@H](O)c1ccc([N+](=O)[O-])cc1)C(Cl)Cl [clm, chloramphenicol] | – | 4.9 (≈ 15.2 µM) | 1 (≈ 3.09 µM) | > 25 | – | 7.2 (≈ 22.3 µM) |
| CCn1cc(C(=O)O)c(=O)c2ccc(C)nc21 [nal, nalidixic acid] | 6.8 (≈ 29.3 µM) | 5.3 (≈ 22.8 µM) | 2.1 (≈ 9.04 µM) | 14.5 (≈ 62.4 µM) | 13.6 (≈ 58.6 µM) | 6.3 (≈ 27.1 µM) |
